Measurements taken from ChEMBL document CHEMBL1201862, “PubChem BioAssay data set” (2004).
Active and inactive are the calls of the source.

Key:
[1] = target: T1, Mannose-6-phosphate isomerase (Homo sapiens, UniProt P34949); test: inhibitors of human PMI, primary screen, biochemical, fluorescence intensity, coupled assay (AID 1209)
T1 sequence (P34949 whole entry): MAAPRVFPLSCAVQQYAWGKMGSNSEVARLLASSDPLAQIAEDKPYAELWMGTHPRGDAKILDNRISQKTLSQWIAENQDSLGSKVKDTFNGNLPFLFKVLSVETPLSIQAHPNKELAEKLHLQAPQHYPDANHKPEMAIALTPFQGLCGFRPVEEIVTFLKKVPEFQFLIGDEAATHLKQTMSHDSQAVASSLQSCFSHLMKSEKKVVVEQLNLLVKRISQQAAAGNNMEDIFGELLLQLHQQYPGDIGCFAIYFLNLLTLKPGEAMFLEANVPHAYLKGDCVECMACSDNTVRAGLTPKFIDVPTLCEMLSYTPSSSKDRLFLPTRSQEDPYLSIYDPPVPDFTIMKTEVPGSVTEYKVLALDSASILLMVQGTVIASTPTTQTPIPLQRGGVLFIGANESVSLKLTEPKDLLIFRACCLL

[2] = THP-1 cell cytotoxicity, dose response, cytotoxicity control for Vif-APOBEC3G degradation inhibitor project, THP-1 cells (AID 1117359); format: functional; settings: Human immunodeficiency virus 1, THP-1
Large T antigen = Large T antigen (Simian virus 40, UniProt P03070); format: functional, Betapolyomavirus macacae;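 note: Confirmatory-stage PubChem screen for compounds that inhibit SV40 T antigen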
Vero [3] = test: cells; format: functional; settings: Chlorocebus sabaeus
Vero [4] = test: host cell cytotoxicity of antiviral hits, dose response, cytotoxicity control for West Nile virus antiviral project, secondary assay (AID 1650); format: functional; settings: Chlorocebus sabaeus
[5] = cytotoxicity toward NIH3T3 fibroblasts, dose response, counter-screen, cell-based, ATP luminescence, mouse fibroblasts (AID 2010); format: functional;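 note: cells exposed to compound for about 90 hours before reading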
[6] = inhibitors of intracellular T. cruzi replication, confirmation, NIH3T3 host cells, beta-gal luminescence (AID 2044); format: functional, cell-based;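 note: intracellular parasites grown in NIH/3T3 mouse fibroblasts as host cells; luminescent beta-galactosidase reporter signal from transgenic T. cruzi replicating inside host cells; inhibitors lower the luminescence signal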
[7] = cytotoxicity in HEK-293T cells, dose response, cytotoxicity control for TCR NF-kB inhibitor project, luminescence, T-cell screen hits (AID 489026); format: functional, cell-based;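 note: cells exposed to compound about 14 hours before the viability readout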
[8] = A High Throughput Confirmatory Assay used to Identify Novel Compounds that Inhibit Mycobacterium Tuberculosis in the absence of Glycerol.; format: functional
[9] = target: T2, Tyrosine-protein phosphatase non-receptor type 7 (Homo sapiens, UniProt P35236); test: inhibitors of human HePTP phosphatase, […], biochemical, absorbance, leukemia target (AID 521); format: functional
T2 sequence (P35236 whole entry): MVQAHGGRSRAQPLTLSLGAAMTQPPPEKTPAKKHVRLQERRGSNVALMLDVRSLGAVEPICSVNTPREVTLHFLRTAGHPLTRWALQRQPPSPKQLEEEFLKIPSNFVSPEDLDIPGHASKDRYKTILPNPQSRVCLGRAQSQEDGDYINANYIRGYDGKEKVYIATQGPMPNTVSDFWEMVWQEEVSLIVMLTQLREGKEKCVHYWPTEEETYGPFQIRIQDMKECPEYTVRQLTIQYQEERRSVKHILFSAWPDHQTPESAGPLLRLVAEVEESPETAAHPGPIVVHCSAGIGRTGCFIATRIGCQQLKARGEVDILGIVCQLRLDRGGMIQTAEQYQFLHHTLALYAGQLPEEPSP

[10] = Luminescence Cell-Based Dose Retest to Confirm Inhibitors of Cancer Stem Cells. [Related pubchem assays (depositor defined):AID2717, AID2721]; format: functional; settings: Homo sapiens
[11] = Luminescence-based dose response cell-based high throughput screening assay for cytotoxic compounds using the IEC-6 intestinal epithelial cell line. [Related pubchem assays: 1858 (Summary AID.), 1825 (Counterscreen.), 1907 (Confirmation screen.)]; format: functional
Cytochrome P450 2C19 = Cytochrome P450 2C19 (Homo sapiens, UniProt P33261); test: qHTS Assay for Inhibitors and Substrates of Cytochrome P450 2C19. [Related pubchem assays: 410 ]; format: ADME; settings: read-out: Potency
Cytochrome P450 2C9 = Cytochrome P450 2C9 (Homo sapiens, UniProt P11712); settings: Potency
Chain of Cytochrome P450 2C9 (P11712 whole entry): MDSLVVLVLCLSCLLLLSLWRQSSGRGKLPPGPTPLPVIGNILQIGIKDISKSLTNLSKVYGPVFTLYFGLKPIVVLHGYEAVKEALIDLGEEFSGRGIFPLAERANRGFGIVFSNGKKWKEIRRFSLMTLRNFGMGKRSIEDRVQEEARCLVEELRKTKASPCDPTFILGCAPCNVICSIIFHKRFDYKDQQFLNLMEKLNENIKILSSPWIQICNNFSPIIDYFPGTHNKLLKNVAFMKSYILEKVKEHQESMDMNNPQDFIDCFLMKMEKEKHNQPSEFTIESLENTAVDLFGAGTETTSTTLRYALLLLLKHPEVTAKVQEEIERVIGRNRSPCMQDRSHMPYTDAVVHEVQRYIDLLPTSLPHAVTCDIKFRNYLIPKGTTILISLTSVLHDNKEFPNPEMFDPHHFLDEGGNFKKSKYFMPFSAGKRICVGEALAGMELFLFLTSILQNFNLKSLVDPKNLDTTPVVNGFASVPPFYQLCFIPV

Chain of Large T antigen (P03070 whole entry): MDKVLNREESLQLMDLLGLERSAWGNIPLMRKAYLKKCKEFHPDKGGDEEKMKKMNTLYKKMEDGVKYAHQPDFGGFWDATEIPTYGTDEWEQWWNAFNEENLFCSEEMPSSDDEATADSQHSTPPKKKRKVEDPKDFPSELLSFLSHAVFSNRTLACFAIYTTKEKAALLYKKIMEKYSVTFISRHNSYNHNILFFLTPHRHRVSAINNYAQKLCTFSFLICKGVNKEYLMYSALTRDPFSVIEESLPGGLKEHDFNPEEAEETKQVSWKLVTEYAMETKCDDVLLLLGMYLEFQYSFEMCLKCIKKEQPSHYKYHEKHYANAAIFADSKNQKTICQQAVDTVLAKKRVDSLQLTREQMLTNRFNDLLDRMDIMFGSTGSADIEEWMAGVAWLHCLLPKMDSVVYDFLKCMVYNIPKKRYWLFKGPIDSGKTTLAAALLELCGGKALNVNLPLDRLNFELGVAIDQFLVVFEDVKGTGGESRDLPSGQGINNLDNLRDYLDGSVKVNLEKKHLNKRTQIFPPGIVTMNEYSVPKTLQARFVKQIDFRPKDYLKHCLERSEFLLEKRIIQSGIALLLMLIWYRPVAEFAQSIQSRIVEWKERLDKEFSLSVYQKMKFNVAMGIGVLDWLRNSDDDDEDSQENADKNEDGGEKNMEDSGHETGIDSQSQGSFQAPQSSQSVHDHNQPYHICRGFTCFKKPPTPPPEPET
Chain of Cytochrome P450 2C19 (P33261 whole entry): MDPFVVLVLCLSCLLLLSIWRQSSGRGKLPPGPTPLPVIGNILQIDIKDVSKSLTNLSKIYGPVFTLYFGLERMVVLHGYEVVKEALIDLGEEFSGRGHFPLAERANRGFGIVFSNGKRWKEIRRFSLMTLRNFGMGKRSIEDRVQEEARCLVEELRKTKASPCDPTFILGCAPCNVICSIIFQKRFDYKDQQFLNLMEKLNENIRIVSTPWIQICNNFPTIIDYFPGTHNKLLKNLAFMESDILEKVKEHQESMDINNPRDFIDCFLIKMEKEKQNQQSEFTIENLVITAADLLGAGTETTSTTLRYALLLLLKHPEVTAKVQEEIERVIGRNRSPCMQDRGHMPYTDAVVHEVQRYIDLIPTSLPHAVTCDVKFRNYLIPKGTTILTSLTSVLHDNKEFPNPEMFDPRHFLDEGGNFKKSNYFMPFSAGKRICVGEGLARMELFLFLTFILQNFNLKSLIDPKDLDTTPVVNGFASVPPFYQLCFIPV

## COc1cccc(-n2c(/C=C/c3ccc(O)c(O)c3)nc3ccccc3c2=O)c1
[1]
  IC50: > 50 µM (not active)
[2]
  CC50: 23.1 µM (active)
Large T antigen
  IC50: > 100 µM (active)

## C=C(C)[C@@]12OC3(c4ccccc4)O[C@@H]1C1[C@@H]4O[C@]4(CO)[C@@H](O)[C@]4(O)C(=O)C(C)=C[C@H]4[C@@]1(O3)[C@H](C)[C@H]2OC(=O)/C=C/C=C/c1ccccc1 (stereo partly specified)
Vero [3]
  CC50: > 25 µM (active)
Vero [4]
  CC50: > 100 µM (active)
cells
  EC50: < 0.004 µM (active)
[5]
  EC50: > 60 µM (not active)
[6]
  EC50: < 0.1 µM (active)
[7]
  IC50: > 80 µM (inactive)

## COc1cc2cc(C(c3nnnn3C(C)(C)C)N3CCc4ccccc43)c(O)nc2cc1OC (stereo unspecified)
[8]
  IC50: > 100 µM (active)

## O=C(CCCn1c(=O)[nH]c2cc(Cl)ccc2c1=O)NCCN1CCN(c2ccccc2)CC1
[9]
  IC50: > 100 µM (not active)

## COC(=O)C(Cc1ccc(N(CCCl)CCCl)cc1)/N=C/c1ccccc1O (stereo unspecified)
[10]
  AC50: 0.899 µM (active)
[11]
  IC50: 0.103 µM (active)
[7]
  IC50: > 80 µM (inactive)

## COc1cc2ccc(=O)oc2c(O)c1O [FRAXETIN]
Cytochrome P450 2C19
  AC50: 39.8 µM (inconclusive)
Cytochrome P450 2C9
  AC50: 25.1 µM (inconclusive)
